The values that follow come from ChEMBL document CHEMBL4000185, “Pyrimidine-Based Inhibitors of Dynamin I GTPase Activity: Competitive Inhibition at the Pleckstrin Homology Domain” (J Med Chem, 2017).

A short description of experiment [1]: Inhibition of phosphatidyl serine liposome-stimulated sheep brain dynamin 1 GTPase activity assessed as reduction orthophosphate release using GTP as substrate after 30 mins by malachite green reagent based colorimetric assay. The arrangement: species or system Ovis aries.
For experiment [2], the species on record is Ovis aries. The experiment can be described thus: Inhibition of phosphatidyl serine liposome-stimulated sheep brain dynamin 1 GTPase activity assessed as reduction orthophosphate release up to 300 uM using GTP as substrate after 30 mins by malachite green reagent based colorimetric assay relative to control.
The species entered for experiment [3] is Ovis aries. Put plainly: Inhibition of phosphatidyl serine liposome-stimulated sheep brain dynamin 1 GTPase activity assessed as reduction orthophosphate release at 300 uM using GTP as substrate after 30 mins by malachite green reagent based colorimetric assay relative to control.

Each structure is given as a SMILES string. Activity calls are given as the source filed them. The calls are words filed in the database; no cut-off is given here. A value given as a limit tells only on which side of the number the result lay.

In the case of `CCCCCCCCCCCCCCCCCCNc1nc(C)cc(NCCN(C)C)n1`, the 50% inhibitory concentration (IC50) in experiment [1] (read-out: IC50) turned out to be 4.4 µM.

In the case of `CCCCCCCCCCNc1nc(C)cc(NCCN(C)C)n1`, in experiment [1] (read-out: IC50), the IC50 came out at 9.3 µM.

As to `CCCCCCCCCCCCNc1cc(C)nc(N(C)C)n1`, in experiment [1] (read-out: IC50), the half-inhibitory concentration (IC50) was 14 µM.

On to `Cc1cc(Cl)nc(N2CCN(C)CC2)n1`, for which the inhibition entry in experiment [2] was “inactive”.

On to `Cc1cc(Cl)nc(NCCNC(=O)OC(C)(C)C)n1`, for which, in experiment [2], the inhibition entry is “inactive”.

As for `CCCCNc1cc(C)nc(Cl)n1`, the inhibition entry in experiment [2] is “inactive”.

In the case of `Cc1cc(NC2CCCCC2)nc(Cl)n1`, the inhibition entry in experiment [2] is “inactive”.

In the case of `Cc1cc(NCc2ccccc2)nc(Cl)n1`, the inhibition result in experiment [2] is “inactive”.

Consider `CCCCNc1cc(C)nc(NCCN(C)C)n1`, for which the IC50 in experiment [1] (read-out: IC50) is > 50 µM. The inhibition in experiment [3] was > 50%.

With `CCCCCCCCCCCCNc1cc(C)nc(NCCCN(C)C)n1`, the IC50 in experiment [1] (read-out: IC50) stood at 49 µM.

Regarding `Cc1cc(Cl)nc(N(C)C)n1`, in experiment [2], the inhibition result was “inactive”.

Take `CCCNc1cc(C)nc(Cl)n1`: the inhibition result in experiment [2] was “inactive”.

On to `CCCCCCCCCCCCNc1cc(C)nc(NCCO)n1`, for which the IC50 in experiment [1] (read-out: IC50) is 4.6 µM.

On to `CCCCCCCCCCCCCCNc1cc(C)nc(NCCN(C)C)n1`, for which the IC50 in experiment [1] (read-out: IC50) turned out to be 3.2 µM.

Regarding `COc1ccc(CNc2nc(C)cc(Cl)n2)cc1`, in experiment [2], the inhibition entry is “inactive”.

On to `CCCCCCCCNc1nc(C)cc(NCCN(C)C)n1`, for which the IC50 in experiment [1] (read-out: IC50) was found to be 2.5 µM.

As for `Cc1cc(N2CCN(C)CC2)nc(Cl)n1`, the inhibition entry in experiment [2] is “inactive”.

For the molecule `CCCCNc1nc(C)cc(Cl)n1`, the inhibition entry in experiment [2] is “inactive”.

For the molecule `CCCCCCCCCCN(CCCCCCCCCC)c1nc(C)cc(CCN(C)C)n1`, in experiment [1] (read-out: IC50), the half-maximal inhibitory concentration (IC50) is 5.2 µM.

As for `CCCCCCCCCCCCNc1cc(C)nc(NCCN(C)C)n1`, in experiment [1] (read-out: IC50), the IC50 amounted to 1.1 µM.

With `Cc1cc(Cl)nc(NCCCN(C)C)n1`, the inhibition entry in experiment [2] was “inactive”.

Consider `Cc1cc(N(C)C)nc(Cl)n1`, for which the inhibition result in experiment [2] was “inactive”.

For `CCCCCCCCCCCCCCCCCCNc1cc(C)nc(NCCN(C)C)n1`, the half-inhibitory concentration (IC50) in experiment [1] (read-out: IC50) was 8.4 µM.

For `Cc1cc(Cl)nc(NC2CCCCC2)n1`, the inhibition entry in experiment [2] is “inactive”.

As for `CCCCCCCCCCCCNc1nc(C)cc(NCCO)n1`, the IC50 in experiment [1] (read-out: IC50) came out at 5.5 µM.

In the case of `CCCCCCCCNc1nc(C)cc(Cl)n1`, the inhibition result in experiment [2] is “inactive”.

As to `Cc1cc(NCCN(C)C)nc(NC2CCCCC2)n1`, the IC50 in experiment [1] (read-out: IC50) was determined as 3.8 µM.

With `CCCCCCCCCCCCNc1ccnc(NCCN(C)C)n1`, in experiment [1] (read-out: IC50), the IC50 was determined as 1.8 µM.

For the molecule `CCCCCCCCCCCCNc1cc(C)nc(Cl)n1`, in experiment [1] (read-out: IC50), the IC50 came to 32.5 µM.

For the molecule `CCCCCCNc1cc(C)nc(NCCN(C)C)n1`, the half-maximal inhibitory concentration (IC50) in experiment [1] (read-out: IC50) was found to be 10.6 µM.

For the molecule `CCCCCCCCCCCCNc1cc(C)nc(NCCN)n1`, in experiment [1] (read-out: IC50), the half-maximal inhibitory concentration (IC50) is 5.3 µM.

In the case of `Cc1cc(NCc2ccccc2)nc(NCCN(C)C)n1`, the half-inhibitory concentration (IC50) in experiment [1] (read-out: IC50) is > 50 µM. In addition, in experiment [3], the inhibition was > 50%.

Take `CCNc1cc(C)nc(Cl)n1`: the inhibition result in experiment [2] was “inactive”.

`CCCCCCCCCCNc1cc(C)nc(NCCN(C)C)n1`: in experiment [1] (read-out: IC50), the half-inhibitory concentration (IC50) came to 3.8 µM.

Turning to `CCCCCCCCNc1cc(C)nc(Cl)n1`, in experiment [2], the inhibition entry was “inactive”.

Consider `CCCCCCCCCCNc1cc(C)nc(Cl)n1`, for which the inhibition entry in experiment [2] is “inactive”.

Regarding `CCNc1nc(C)cc(NCCN(C)C)n1`, the inhibition entry in experiment [3] was “inactive”.

As for `CCCCCCCCCCCCNc1nc(C)cc(NCCC)n1`, in experiment [1] (read-out: IC50), the IC50 amounted to 4.7 µM.

Consider `Cc1cc(NCCCN(C)C)nc(Cl)n1`, for which the inhibition entry in experiment [2] was “inactive”.

Consider `CCCCCCCCCCCCCCNc1nc(C)cc(Cl)n1`, for which, in experiment [2], the inhibition entry was “inactive”.

For `CCNc1cc(C)nc(NCCN(C)C)n1`, the inhibition result in experiment [3] was “inactive”.

As to `CCCNc1nc(C)cc(Cl)n1`, in experiment [2], the inhibition result was “inactive”.

As for `COc1ccc(CNc2cc(C)nc(Cl)n2)cc1`, the inhibition result in experiment [2] was “inactive”.

As for `CCCCCCNc1nc(C)cc(NCCN(C)C)n1`, the IC50 in experiment [1] (read-out: IC50) worked out at 5.8 µM.

With `CCCCCCCCCCCCNc1nccc(NCCN(C)C)n1`, in experiment [1] (read-out: IC50), the IC50 was 2 µM.

`Cc1cc(Cl)nc(NCCN)n1`: the inhibition entry in experiment [2] was “inactive”.

For `CCCN(CC1CC1)c1nc(C)cc(NCCN(C)C)n1`, the IC50 in experiment [1] (read-out: IC50) came to 59.8 µM.

On to `CCC(C)Nc1nc(C)cc(NCCN(C)C)n1` (stereo unspecified), for which the IC50 in experiment [1] (read-out: IC50) was > 50 µM. The inhibition in experiment [3] is > 50%.

Take `CCCCCCCCCCCCNc1nc(C)cc(NCCCN(C)C)n1`: the IC50 in experiment [1] (read-out: IC50) was 37.7 µM.

Turning to `CCCCNc1nc(C)cc(NCCN(C)C)n1`, in experiment [3], the inhibition entry was “inactive”.

Take `CCC(C)Nc1cc(C)nc(NCCN(C)C)n1` (stereo unspecified): the inhibition result in experiment [3] was “inactive”.

As to `Cc1cc(NCCN)nc(Cl)n1`, the inhibition entry in experiment [2] was “inactive”.

`CCCCCCCCCCNc1cc(NCCN(C)C)ncn1`: the IC50 in experiment [1] (read-out: IC50) amounted to 5.1 µM.

For the molecule `CCCNc1cc(C)nc(NCCN(C)C)n1`, the inhibition entry in experiment [3] was “inactive”.

Regarding `CCCN(CC1CC1)c1cc(C)nc(NCCN(C)C)n1`, in experiment [1] (read-out: IC50), the IC50 is 52 µM.

With `Cc1cc(Cl)nc(NCc2ccccc2)n1`, the inhibition result in experiment [2] was “inactive”.

As for `CCCCCCCCCCCCCCNc1cc(C)nc(Cl)n1`, the inhibition result in experiment [2] is “inactive”.

Turning to `CCCCCCCCCCCCNc1cc(C)nc(NCCC)n1`, the IC50 in experiment [1] (read-out: IC50) amounted to 61.8 µM.

In the case of `CCCCCCCCCCNc1ccnc(NCCN(C)C)n1`, the IC50 in experiment [1] (read-out: IC50) was 2.9 µM.

For the molecule `CCCCCCCCCCCCNc1nc(C)cc(N(C)C)n1`, the IC50 in experiment [1] (read-out: IC50) was 3.3 µM.

Take `Cc1cc(NCCN(C)C)nc(NCc2ccccc2)n1`: the IC50 in experiment [1] (read-out: IC50) is > 50 µM. Further, the inhibition in experiment [3] is > 50%.

Consider `Cc1cc(NC2CCCCC2)nc(NCCN(C)C)n1`, for which the IC50 in experiment [1] (read-out: IC50) is 20.6 µM.

With `CCC(C)Nc1nc(C)cc(Cl)n1` (stereo unspecified), the inhibition result in experiment [2] is “inactive”.

Turning to `CCCCCCCCCCNc1nccc(NCCN(C)C)n1`, the 50% inhibitory concentration (IC50) in experiment [1] (read-out: IC50) was found to be 44.9 µM.

On to `CCCCCCCCCCN(CCCCCCCCCC)c1cc(C)nc(NCCN(C)C)n1`, for which, in experiment [1] (read-out: IC50), the IC50 stood at 7.5 µM.

On to `CCCCCCNc1cc(C)nc(Cl)n1`, for which the inhibition entry in experiment [2] is “inactive”.

As to `Cc1cc(NCCNC(=O)OC(C)(C)C)nc(Cl)n1`, the inhibition result in experiment [2] was “inactive”.

As for `CCCNc1nc(C)cc(NCCN(C)C)n1`, the inhibition result in experiment [3] is “inactive”.

As for `CCCCCCCCCCCCNc1cc(NCCN(C)C)ncn1`, in experiment [1] (read-out: IC50), the IC50 came to 7.7 µM.

Take `CCCCCCCCNc1cc(C)nc(NCCN(C)C)n1`: the half-inhibitory concentration (IC50) in experiment [1] (read-out: IC50) is 1.6 µM.

On to `CCCN(CC1CC1)c1nc(C)cc(Cl)n1`, for which the inhibition result in experiment [2] is “inactive”.

In the case of `CCNc1nc(C)cc(Cl)n1`, the inhibition result in experiment [2] is “inactive”.

With `CCCN(CC1CC1)c1cc(C)nc(Cl)n1`, the inhibition entry in experiment [2] is “inactive”.

As to `CCCCCCNc1nc(C)cc(Cl)n1`, the inhibition entry in experiment [2] is “inactive”.

In the case of `CCC(C)Nc1cc(C)nc(Cl)n1` (stereo unspecified), the inhibition entry in experiment [2] is “inactive”.

`CCCCCCCCCCCCCCNc1nc(C)cc(NCCN(C)C)n1`: the IC50 result in experiment [1] is “Not Active”.

For the molecule `CCCCCCCCCCCCNc1nc(C)cc(NCCN)n1`, the IC50 in experiment [1] (read-out: IC50) amounted to 18.6 µM.
